From patent US8575114B2, “SGLT-2 inhibitors, methods of making them, and uses thereof” (Albany Molecular Research, Inc., priority 2010, dated 2013)

How the values were obtained:
hSGLT-2 = hSGLT-2 (Homo sapiens (Human), UniProt P31639); test: [14C]AMG uptake inhibition in CHO-K1/hSGLT-2 cells; format: cell-based; settings: 4 μM [14C]AMG, 3-hr incubation at 37° C., read-out: SGLT2, IC50
Procedure: The inhibitory activity of the compounds of this invention against the SGLT-1 or SGLT-2 transporters can be determined by the following assay. […] CHO-K1 cells transfected with pcDNA3.1 (Invitrogen Corp., Carlsbad, Calif.) containing either the full-length hSGLT-1 or hSGLT-2 using Lipofectamine 2000 (Invitrogen Corp., Carlsbad, Calif.) were selected for stable incorporation of the construct by resistance to the selective pressure of Geneticin (450 μg/ml; Invitrogen Corp., Carlsbad, Calif.). Monoclonal cell lines isolated by minimal dilution were screened for uptake activity of radiolabled methyl α-D-glucopyranoside ([^14C]AMG), a non-metabolizable glucose analogue, and a single clone for each transporter was selected for maximal transporter activity to be used for evaluating the inhibitory activity of the compounds of this invention. In brief, 35,000 cells (CHO-K1/hSGLT-1 or CHO-K1/hSGLT-2) were plated per well of a black tissue culture treated 96-well plate in Ham's F12 media supplemented with 10% heat inactivated FBS and allowed to attached overnight at 37° C. and 5% CO2. Compounds were serially diluted 3-fold in DMSO generating a nine (9) data point dose response curve for each compound. Two replicates were performed per determination. […] Following a 3-hr incubation at 37° C. and 5% CO2, the uptake reaction was stopped by washing the cells three (3) times with ice-cold D-PBS and then lysing the cells with 50 μl of Microscint-20. […] Data were fit to an empirical four-parameter model to determine the inhibitor concentration at half-maximal response (IC50). The assay window was established by control wells incubated with [^14C]AMG in the presence or absence of sodium. A dose response curve for phlorizin was generated on every plate as a positive control.

hSGLT-1 = hSGLT-1 (Homo sapiens (Human), UniProt P13866); test: [14C]AMG uptake inhibition in CHO-K1/hSGLT-1 cells; format: cell-based; settings: 4 μM [14C]AMG, 3-hr incubation at 37° C., read-out: SGLT-1, IC50
hSGLT-1, sequence (P13866 whole entry): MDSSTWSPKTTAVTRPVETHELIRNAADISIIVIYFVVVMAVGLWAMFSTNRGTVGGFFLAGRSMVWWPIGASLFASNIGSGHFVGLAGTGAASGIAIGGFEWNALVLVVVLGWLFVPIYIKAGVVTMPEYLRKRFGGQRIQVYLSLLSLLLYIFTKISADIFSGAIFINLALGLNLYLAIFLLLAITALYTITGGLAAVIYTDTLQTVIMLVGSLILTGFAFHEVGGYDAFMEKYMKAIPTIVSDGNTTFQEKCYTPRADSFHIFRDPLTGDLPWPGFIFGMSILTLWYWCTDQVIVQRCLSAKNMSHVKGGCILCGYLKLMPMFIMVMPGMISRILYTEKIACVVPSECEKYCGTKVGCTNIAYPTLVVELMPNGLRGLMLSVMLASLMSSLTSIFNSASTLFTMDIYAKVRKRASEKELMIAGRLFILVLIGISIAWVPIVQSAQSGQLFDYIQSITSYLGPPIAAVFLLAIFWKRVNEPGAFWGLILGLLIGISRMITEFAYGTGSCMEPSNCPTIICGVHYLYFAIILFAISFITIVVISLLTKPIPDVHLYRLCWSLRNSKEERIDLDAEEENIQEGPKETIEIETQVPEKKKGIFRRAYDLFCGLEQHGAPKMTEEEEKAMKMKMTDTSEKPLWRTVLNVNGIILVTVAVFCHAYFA
Source text: The inhibitory activity of the compounds of this invention against the SGLT-1 or SGLT-2 transporters can be determined by the following assay. The cDNAs for the human genes of SGLT-1 (SLC5A1—solute carrier family 5 sodium/glucose cotransporter member 1; Accession #NM_000343.1) or SGLT-2 (SLC5A2—member 2; Accession #NM_003041.2) were synthesized (OriGene Technologies, Inc.) and sub-cloned into the mammalian expression vector, pcDNA3.1 (Invitrogen Corp., Carlsbad, Calif.) using standard molecular biology techniques. CHO-K1 cells transfected with pcDNA3.1 (Invitrogen Corp., Carlsbad, Calif.) containing either the full-length hSGLT-1 or hSGLT-2 using Lipofectamine 2000 (Invitrogen Corp., Carlsbad, Calif.) were selected for stable incorporation of the construct by resistance to the selective pressure of Geneticin (450 μg/ml; Invitrogen Corp., Carlsbad, Calif.). Monoclonal cell lines isolated by minimal dilution were screened for uptake activity of radiolabled methyl α-D-glucopyranoside ([^14C]AMG), a non-metabolizable glucose analogue, and a single clone for each transporter was selected for maximal transporter activity to be used for evaluating the inhibitory activity of the compounds of this invention. In brief, 35,000 cells (CHO-K1/hSGLT-1 or CHO-K1/hSGLT-2) were plated per well of a black tissue culture treated 96-well plate in Ham's F12 media supplemented with 10% heat inactivated FBS and allowed to attached overnight at 37° C. and 5% CO2. Compounds were serially diluted 3-fold in DMSO generating a nine (9) data point dose response curve for each compound. Two replicates were performed per determination. The compounds were then diluted into Uptake Buffer (10 mM Hepes, 5 mM Tris, 137 mM NaCl, 5.4 mM KCl, 2.8 mM CaCl2, and 1.2 mM MgSO4, pH 7.4) with a final DMSO concentration of 0.9% (v/v). After the overnight incubation and prior to compound treatment, the cells were washed twice with Sodium Free Buffer in which the sodium chloride was replaced with 137 mM Choline Chloride, and then incubated with 4 μM [^14C]AMG in Uptake Buffer in the presence or absence of diluted compound. Following a 3-hr incubation at 37° C. and 5% CO2, the uptake reaction was stopped by washing the cells three (3) times with ice-cold D-PBS and then lysing the cells with 50 μl of Microscint-20. After 15-min, the amount of radioactivity that was incorporated into the cells was quantified using a Microbeta reader. Data were fit to an empirical four-parameter model to determine the inhibitor concentration at half-maximal response (IC50). The assay window was established by control wells incubated with [^14C]AMG in the presence or absence of sodium. A dose response curve for phlorizin was generated on every plate as a positive control.

hSGLT-2, sequence (P31639 whole entry): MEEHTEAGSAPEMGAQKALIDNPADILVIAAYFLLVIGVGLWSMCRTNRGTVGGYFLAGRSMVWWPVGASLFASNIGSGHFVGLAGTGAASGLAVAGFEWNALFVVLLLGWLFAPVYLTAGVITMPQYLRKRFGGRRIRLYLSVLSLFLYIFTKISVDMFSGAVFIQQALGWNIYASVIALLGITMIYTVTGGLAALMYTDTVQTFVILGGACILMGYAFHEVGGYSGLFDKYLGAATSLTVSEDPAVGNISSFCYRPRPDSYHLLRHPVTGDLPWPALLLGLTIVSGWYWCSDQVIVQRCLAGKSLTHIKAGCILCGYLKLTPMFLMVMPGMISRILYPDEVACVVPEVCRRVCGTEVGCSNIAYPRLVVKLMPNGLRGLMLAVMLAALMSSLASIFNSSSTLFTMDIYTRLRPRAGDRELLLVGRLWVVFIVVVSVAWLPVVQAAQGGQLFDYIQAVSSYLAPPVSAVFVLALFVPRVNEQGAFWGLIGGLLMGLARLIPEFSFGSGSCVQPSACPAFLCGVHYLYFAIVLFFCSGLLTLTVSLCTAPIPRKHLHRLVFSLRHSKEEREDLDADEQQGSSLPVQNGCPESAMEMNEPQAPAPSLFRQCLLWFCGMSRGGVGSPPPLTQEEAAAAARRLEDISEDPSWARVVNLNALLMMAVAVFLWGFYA

With CC(C)N1C(=O)CN(c2ccc(Cc3cc([C@@H]4O[C@H](CO)[C@@H](O)[C@H](O)[C@H]4O)ccc3Cl)cc2)C1=O [III-4, 1-(4-(2-chloro-5-((2S,3R,4R,5S,6R)-3,4,5-trihydroxy-6-(hydroxymethyl)tetrahydro-2H-pyran-2-yl)benzyl)phenyl)-3-isopropylimidazolidine-2,4-dione] the IC50 (hSGLT-2) was 23.6 nM and the IC50 (hSGLT-1) was 35400 nM.

Compound CN1C(=O)N(c2ccc(Cc3cc([C@@H]4O[C@H](CO)[C@@H](O)[C@H](O)[C@H]4O)ccc3Cl)cc2)C(C)(C)C1=O [III-5, 1-(4-(2-chloro-5-((2S,3R,4R,5S,6R)-3,4,5-trihydroxy-6-(hydroxymethyl)tetrahydro-2H-pyran-2-yl)benzyl)phenyl)-3,5,5-trimethylimidazolidine-2,4-dione] has an IC50 (hSGLT-2) of 489 nM and an IC50 (hSGLT-1) of over 90000 nM.
